Results: ChEMBL document CHEMBL1201862, “PubChem BioAssay data set” (2004)
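All cell lines were grown in 96-well plates and treated with compound for 48 hours. GI50 is the concentration that inhibits growth by half.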 Active and inactive are the calls of the source. Cut-off read from the data, not from the text of the source: active = GI50 up to about 1.1 µM and inactive = higher.

Legend:
Assay in all cases: DTP human tumour cell line panel, 48 h
HOP-62 = tested on: HOP-62
U-251 = tested on: U-251
LXFL 529 = tested on: LXFL 529
SK-MEL-2 = tested on: SK-MEL-2
Malme-3M = tested on: Malme-3M
HL-60 = tested on: HL-60
HT-29 = tested on: HT-29
K562 = tested on: K562
IGROV-1 = tested on: IGROV-1
HOP-92 = tested on: HOP-92
TK-10 = tested on: TK-10
SF-268 = tested on: SF-268
NCI-H23 = tested on: NCI-H23
ACHN = tested on: ACHN
KM-20L2 = tested on: KM-20L2
SF-295 = tested on: SF-295
OVCAR-3 = tested on: OVCAR-3
NCI-H522 = tested on: NCI-H522
OVCAR-4 = tested on: OVCAR-4
OVCAR-5 = tested on: OVCAR-5
XF498 = tested on: XF498
A549 = tested on: A549
SR = tested on: SR
NCI-H226 = tested on: NCI-H226
SK-OV-3 = tested on: SK-OV-3
UACC-257 = tested on: UACC-257
A498 = tested on: A498
LOX IMVI = tested on: LOX IMVI
786-0 = tested on: 786-0
SW-620 = tested on: SW-620
CCRF-CEM = tested on: CCRF-CEM
HOP-18 = tested on: HOP-18
OVCAR-8 = tested on: OVCAR-8
HCT-15 = tested on: HCT-15
NCI-H460 = tested on: NCI-H460
KM12 = tested on: KM12
HCT-116 = tested on: HCT-116
RXF 393 = tested on: RXF 393
SNB-19 = tested on: SNB-19
DMS-273 = tested on: DMS-273
SNB-78 = tested on: SNB-78
HCC 2998 = tested on: HCC 2998
M19-MEL = tested on: M19-MEL
COLO 205 = tested on: COLO 205
SN12C = tested on: SN12C
CAKI-1 = tested on: CAKI-1
SK-MEL-28 = tested on: SK-MEL-28
MOLT-4 = tested on: MOLT-4
EKVX = tested on: EKVX
Hs-578T = tested on: Hs-578T
MDA-MB-231 = tested on: MDA-MB-231
SF-539 = tested on: SF-539
UO-31 = tested on: UO-31
DU-145 = tested on: DU-145
MDA-MB-435 = tested on: MDA-MB-435
MCF7 = tested on: MCF7
BT-549 = tested on: BT-549
M14 = tested on: M14
SK-MEL-5 = tested on: SK-MEL-5
NCI/ADR-RES = tested on: NCI/ADR-RES
T47D = tested on: T47D
MDA-N = tested on: MDA-N
PC-3 = tested on: PC-3
RPMI-8226 = tested on: RPMI-8226
DLD-1 = tested on: DLD-1
SNB-75 = tested on: SNB-75
UACC-62 = tested on: UACC-62

## CC1(C)C(=O)/C=C\C(=O)C(C)(C)C2=CC=C(O2)C(C)(C)C(=O)/C=C\C(=O)C(C)(C)C2=CC=C1O2
HOP-62
  GI50: > 0.1 mM (inactive)
U-251
  GI50: > 0.1 mM (inactive)
LXFL 529
  GI50: > 0.1 mM (inactive)
SK-MEL-2
  GI50: > 0.1 mM (inactive)
Malme-3M
  GI50: > 0.1 mM (inactive)
HL-60
  GI50: > 0.1 mM (inactive)
HT-29
  GI50: > 0.1 mM (inactive)
K562
  GI50: > 0.1 mM (inactive)
IGROV-1
  GI50: > 0.1 mM (inactive)
HOP-92
  GI50: > 0.1 mM (inactive)
TK-10
  GI50: > 0.1 mM (inactive)
SF-268
  GI50: > 0.1 mM (inactive)
NCI-H23
  GI50: > 0.1 mM (inactive)
ACHN
  GI50: > 0.1 mM (inactive)
KM-20L2
  GI50: > 0.1 mM (inactive)
SF-295
  GI50: > 0.1 mM (inactive)
OVCAR-3
  GI50: > 0.1 mM (inactive)
NCI-H522
  GI50: > 0.1 mM (inactive)
OVCAR-4
  GI50: > 0.1 mM (inactive)
OVCAR-5
  GI50: > 0.1 mM (inactive)
XF498
  GI50: > 0.1 mM (inactive)
A549
  GI50: > 0.1 mM (inactive)
SR
  GI50: > 0.1 mM (inactive)
NCI-H226
  GI50: > 0.1 mM (inactive)
SK-OV-3
  GI50: > 0.1 mM (inactive)
UACC-257
  GI50: > 0.1 mM (inactive)
A498
  GI50: > 0.1 mM (inactive)
LOX IMVI
  GI50: > 0.1 mM (inactive)
786-0
  GI50: > 0.1 mM (inactive)
SW-620
  GI50: > 0.1 mM (inactive)
CCRF-CEM
  GI50: > 0.1 mM (inactive)
HOP-18
  GI50: > 0.1 mM (inactive)
OVCAR-8
  GI50: > 0.1 mM (inactive)
HCT-15
  GI50: > 0.1 mM
NCI-H460
  GI50: > 0.1 mM (inactive)
KM12
  GI50: > 0.1 mM (inactive)
HCT-116
  GI50: > 0.1 mM (inactive)
RXF 393
  GI50: > 0.1 mM (inactive)
SNB-19
  GI50: > 0.1 mM (inactive)
DMS-273
  GI50: > 0.1 mM (inactive)
SNB-78
  GI50: > 0.1 mM (inactive)
HCC 2998
  GI50: > 0.1 mM (inactive)
M19-MEL
  GI50: > 0.1 mM (inactive)
COLO 205
  GI50: > 0.1 mM (inactive)
SN12C
  GI50: > 0.1 mM (inactive)
CAKI-1
  GI50: > 0.1 mM (inactive)
SK-MEL-28
  GI50: > 0.1 mM (inactive)
MOLT-4
  GI50: > 0.1 mM (inactive)
EKVX
  GI50: > 0.1 mM (inactive)

## CC(C)[C@](O)(C(=O)OCC1=CC[N+]2([O-])CC[C@@H](O)[C@@H]12)[C@H](C)O (some centres undefined) [INDICINE N-OXIDE]
HOP-62
  GI50: 3.59 mM (inactive)
U-251
  GI50: > 8.57 mM (inactive)
Hs-578T
  GI50: > 5.43 mM (inactive)
SK-MEL-2
  GI50: > 10 mM (inactive)
Malme-3M
  GI50: > 9.42 mM (inactive)
MDA-MB-231
  GI50: > 10 mM (inactive)
HL-60
  GI50: 3.23 mM (inactive)
HT-29
  GI50: > 10 mM (inactive)
K562
  GI50: > 10 mM (inactive)
IGROV-1
  GI50: > 9.33 mM (inactive)
HOP-92
  GI50: > 9.73 mM (inactive)
SF-539
  GI50: > 9.08 mM (inactive)
TK-10
  GI50: > 10 mM (inactive)
SF-268
  GI50: > 9.93 mM (inactive)
NCI-H23
  GI50: > 6 mM (inactive)
ACHN
  GI50: 4.6 mM (inactive)
UO-31
  GI50: > 10 mM (inactive)
DU-145
  GI50: > 10 mM (inactive)
KM-20L2
  GI50: > 10 mM (inactive)
MDA-MB-435
  GI50: > 10 mM (inactive)
MCF7
  GI50: > 10 mM (inactive)
SF-295
  GI50: > 10 mM (inactive)
OVCAR-3
  GI50: 9.91 mM (inactive)
BT-549
  GI50: > 10 mM (inactive)
NCI-H522
  GI50: > 7.41 mM (inactive)
OVCAR-4
  GI50: > 10 mM (inactive)
OVCAR-5
  GI50: > 10 mM (inactive)
A549
  GI50: 5.96 mM (inactive)
SR
  GI50: 4.63 mM (inactive)
NCI-H226
  GI50: > 10 mM (inactive)
SK-OV-3
  GI50: > 10 mM (inactive)
UACC-257
  GI50: > 10 mM (inactive)
M14
  GI50: > 10 mM (inactive)
A498
  GI50: 8.97 mM (inactive)
LOX IMVI
  GI50: > 7.8 mM (inactive)
SK-MEL-5
  GI50: > 7 mM (inactive)
786-0
  GI50: > 9.27 mM (inactive)
NCI/ADR-RES
  GI50: > 10 mM (inactive)
T47D
  GI50: > 10 mM (inactive)
MDA-N
  GI50: > 10 mM (inactive)
SW-620
  GI50: > 10 mM (inactive)
CCRF-CEM
  GI50: > 9.16 mM (inactive)
HOP-18
  GI50: > 10 mM (inactive)
PC-3
  GI50: > 10 mM (inactive)
OVCAR-8
  GI50: 8.11 mM (inactive)
HCT-15
  GI50: > 10 mM
NCI-H460
  GI50: 5.96 mM (inactive)
KM12
  GI50: > 10 mM (inactive)
HCT-116
  GI50: > 10 mM (inactive)
RXF 393
  GI50: 7.46 mM (inactive)
SNB-19
  GI50: > 10 mM (inactive)
DMS-273
  GI50: 6.08 mM (inactive)
SNB-78
  GI50: > 10 mM (inactive)
HCC 2998
  GI50: > 10 mM (inactive)
M19-MEL
  GI50: > 10 mM (inactive)
COLO 205
  GI50: > 5.94 mM (inactive)
RPMI-8226
  GI50: > 10 mM (inactive)
DLD-1
  GI50: > 10 mM (inactive)
SNB-75
  GI50: > 9.75 mM (inactive)
SN12C
  GI50: 8.87 mM (inactive)
CAKI-1
  GI50: 6.52 mM (inactive)
SK-MEL-28
  GI50: > 10 mM (inactive)
UACC-62
  GI50: 7.21 mM (inactive)
MOLT-4
  GI50: 8.57 mM (inactive)
EKVX
  GI50: > 9.06 mM (inactive)
